Read-outs that look alike come from different tables or passages of the source.
What was measured:
[1] = tested on: spleen lymphocytes of SJL/J mice
Description: The purpose of this assay is to challenge lymphocytes in microcultures with one or more polyclonal mitogens at concentrations that will induce mitogenesis within 72 hours of stimulation.
In the mouse model, spleens are removed from different strains of mice and the spleen cells are teased free and suspended in RPMI-1640 tissue culture medium at a concentration of usually 1×10^7 ml. These cells are dispensed at a concentration of 5.0×10^5 cells per microculture well in a 96 well flat bottom 96 well tissue culture plate. All testing of the compounds of this invention or mitogens are done in replicates of 10. The cells are then treated with PHA, Con-A, specific antigens, or buffer only. If in vitro testing is done, varying concentrations of the compounds of this invention or buffer only are added to the cells as well. After treatment with the mitogens and/or compounds of this invention, the cells are incubated for 72 hours. The response of these cells to mitogens and/or the compounds of this invention is assessed using ^14 C-thymidine labeling on the fourth day at a concentration of 0.01 μCi/well. The labeled cells are harvested using a lymphocyte harvestor and placed onto fibrous paper discs. A scintillation cocktail is added to vials contaning the discs and the results are obtained using a LKB-liquid scintillation counter (Model 1216/Rackbeta II). The data is expressed as a ratio of the cpm of the mitogen stimulated group to the control (non-mitogen) treated group=lymphocyte stimulation index (LSI).
The lymphocyte stimulation assay may be performed directly on spleen cells obtained from various strains of mice not treated with the compounds of this invention or on lymphocytes obtained from […]. […] Alternatively, the mice may be treated in vivo with the compounds of this invention by intraperitoneal multi-dose schedules, followed by sacrifice and harvesting spleen lymphocytes. These cells are then tested for their response to polyclonal mitogens or specific antigens used to immunize the mice. In this sytem however, no additional compound is added to the in vitro lymphocyte stimulation assay system.
Three month old mice of the SJL/J strain, which are T-cell deficient, are treated with i.p. administration of 100, 200, or 400 mg/kg of Cpd. 1 or just buffer for four days. This is followed by a lymphocyte stimulation assay.
An in vivo lymphocyte stimulation assay was performed on SJL/J mice of different ages, either 2, 5, or 10 months. The mice received i.p. injections of either 100 mg/kg of Cpd. 1 or just buffer.

[2] = tested on: antibody response to keyhole limpet hemocyanin (KLH)
Excerpt: The effect of the compounds of this invention on the immune response to specific antigens involves immunization of mice with specific anitgens such as bovine serum albumin (BSA) or keyhole limpet hemocyanin (KLH). Following immunization, it is possible to assess the cell-mediated or humoral (antibody) immune response to these antigens by various methods:
(2) Antibody response to soluble antigens such as BSA or KLH can be quantitated using a micro-ELISA solid phase heterogeneous immunoassay. The assay can be designed to quantitate class specific immunoglobulins (i.e., IgG or IgM).
The cut-off for the titer was the highest dilution of mouse serum yielding an O.D.≤0.1 when read on the MR-600 Dynatech micro-ELISA reader.
Mice of the C57BL/6 strain are given i.p. injections of either 50, 100, 200 or 400 mg/kg of Cpd. 1 or buffer for ten days (days 1-10). An antigen, keyhole limpet hemocyanin (KLH), is administered intraperitoneally with Freund's Complete Adjuvant (FCA) on days 1, 7, and 13. Blood samples are taken for assay of the antibody response on days 0, 5, 12, and 17. Spleens are removed, lymphocytes isolated and a lymphocyte stimulation assay with PHA, Con-A or KLH antigen as the mitogens is performed on day 17 of the experiment.

[3] = 100 mg/kg i.p., four days, three month old mice
[4] = 200 mg/kg i.p., four days, three month old mice
[5] = 400 mg/kg i.p., four days, three month old mice

Cc1ccc(C2(O)C(=O)OC3C(O)COC32O)o1.Cc1ccc(C2(O)C(=O)OC3C(O)COC32O)o1.O=C1CCC(=O)O1 (centres unmarked) [Cpd. 1]
Lymphocyte Stimulation Index, Con-A ([1]; 100 mg/kg i.p., age 2 months): 167 | Lymphocyte Stimulation Index, Control (no mitogen) ([1]; 100 mg/kg i.p., age 2 months): 2.3 | Lymphocyte Stimulation Index, PHA ([1]; 100 mg/kg i.p., age 2 months): 32.6 | Lymphocyte Stimulation Index, Con-A ([1]; 100 mg/kg i.p., age 5 months): 12.9 | Lymphocyte Stimulation Index, Control (no mitogen) ([1]; 100 mg/kg i.p., age 5 months): 1.9 | Lymphocyte Stimulation Index, PHA ([1]; 100 mg/kg i.p., age 5 months): 1.16 | Lymphocyte Stimulation Index, Con-A ([1]; 100 mg/kg i.p., age 10 months): 14.5 | Lymphocyte Stimulation Index, Control (no mitogen) ([1]; 100 mg/kg i.p., age 10 months): 2.1 | Lymphocyte Stimulation Index, PHA ([1]; 100 mg/kg i.p., age 10 months): 9.18 | Lymphocyte Stimulation Index, Con-A [1, 3]: 5.01 | Lymphocyte Stimulation Index, Control (no mitogen) [1, 3]: 0.573 | Lymphocyte Stimulation Index, PHA [1, 3]: 1.85 | Con-A response ([1]; 100 mg/kg, 2 months of age): increased | PHA response ([1]; 100 mg/kg, 2 months of age): decreased | mitogenesis response to PHA and Con-A ([1]; 100 mg/kg, 5 months of age): depressed mitogenesis response | PHA and Con-A mitogenic response ([1]; 100 mg/kg, ten month old): significant stimulation | Lymphocyte Stimulation Index, Con-A [1, 4]: 4.57 | Lymphocyte Stimulation Index, Control (no mitogen) [1, 4]: 0.732 | Lymphocyte Stimulation Index, PHA [1, 4]: 1.79 | Lymphocyte Stimulation Index, Con-A [1, 5]: 3.30 | Lymphocyte Stimulation Index, Control (no mitogen) [1, 5]: 0.693 | Lymphocyte Stimulation Index, PHA [1, 5]: 2.31 | Micro-ELISA Titer ([2]; 50 mg/kg i.p., day 5): N/R | Micro-ELISA Titer ([2]; 50 mg/kg i.p., prebleed): N/R | Micro-ELISA Titer ([2]; 100 mg/kg i.p., day 5): N/R | Micro-ELISA Titer ([2]; 100 mg/kg i.p., prebleed): N/R | Micro-ELISA Titer ([2]; 200 mg/kg i.p., day 5): N/R | Micro-ELISA Titer ([2]; 200 mg/kg i.p., prebleed): N/R | Micro-ELISA Titer ([2]; 400 mg/kg i.p., day 5): N/R | Micro-ELISA Titer ([2]; 400 mg/kg i.p., prebleed): N/R | stimulation of antibody response to KLH over control ([2]; 200 and 400 mg/kg, day 12): significant stimulation (four-fold increases) | increase of antibody response to KLH over untreated antigen-sensitized controls ([2]; 200 and 400 mg/kg, day 17): eight-fold increase

From patent US4620014A, “2-furylbutyrolactones and methods for using same” (priority 1983, dated 1986)
